Reference: article PMC7534258, “Novel temporin L antimicrobial peptides: promoting self-assembling by lipidic tags to tackle superbugs” (Journal of Enzyme Inhibition and Medicinal Chemistry, 2020)
≈ marks a conversion by molar mass, not a printed value. Where a SMILES comes first, the peptide text is derived from it. [ ]: non-standard residue; d: D form. The star is where a group is joined. Heptanoyl = CCCCCCC(=O)*; Pentanoyl = CCCCC(=O)*

Experiments:
P. aeruginosa ATCC 27853 = experiment: Broth microdilution MIC, reference strain; format: cell-based, Pseudomonas aeruginosa; conditions: for MIC: Pseudomonas aeruginosa, ATCC27853, antibiotics, 16–18 h at 37 °C, read-out: Antimicrobial activity (MIC) P. aeruginosa ATCC 27853
Method: (§1) Staphylococcus aureus ATCC 25923, Pseudomonas aeruginosa ATCC 27853 and Klebsiella pneumoniae ATCC BAA-1705 (carbapenemase producer) were obtained from the American Type Culture Collection (Rockville, MD).
(§2) Identification was performed by sub-culturing on Tryptic Soy Agar (TSA, Becton Dickinson) and by biochemical characterisation using the Vitek II system (Biomerieux). The antimicrobial susceptibility testing of all isolates was determined using Vitek II system and results were interpreted according to European Committee on Antimicrobial Susceptibility Testing (EUCAST version 9.0, 2019). P. aeruginosa was cultured in Brain Heart Infusion broth (BHI, OXOID), S. aureus and K. pneumoniae were cultured in Tryptic Soya broth (TSB, OXOID), under aerobic conditions at 37 °C, for 24 h on an orbital shaker at 200 rpm.
(§3) Minimal inhibitory concentrations (MIC) of all the peptides were determined in Mueller–Hinton medium by the broth microdilution assay, following the procedure already described[22]^,[34]. The compounds were added to bacterial suspension in each well yielding a final cell concentration of 1 × 10^6 CFU/ml and a final compound concentration ranging from 0.78 to 100 µM. Negative control wells were set to contain bacteria in Mueller–Hinton broth plus the amount of vehicle (ethanol) used to dilute each compound. Positive controls included vancomycin (2 µg/ml), tobramycin (4 µg/ml), gentamycin (4 µg/ml), and imipenem (8 µg/ml).

[1] = test system: K. pneumoniae ATCC BAA-1705; experiment: Broth microdilution MIC, reference strain; format: cell-based, Klebsiella pneumoniae; conditions: for MIC: Klebsiella pneumoniae, ATCCBAA1705, antibiotics, 16–18 h at 37 °C, read-out: Antimicrobial activity (MIC) K. pneumoniae ATCC BAA-1705
Method: as §1, §2, §3

S. aureus ATCC 25923 = experiment: microbe, parasite or virus in culture; conditions: for MIC: Staphylococcus aureus, ATCC25923, read-out: Antimicrobial activity (MIC) S. aureus ATCC 25923
Method: as §1, §2, §3

KpCR1 = experiment: microbe, parasite or virus in culture; conditions: Klebsiella pneumoniae, read-out: Antimicrobial activity (MIC) KpCR1
Method: (§4) Clinical strains of P. aeruginosa (Pa1, Pa2 and Pa3), K. pneumoniae (KpCR1, KpCR2 and KpCR3), and S. aureus (Sa1, Sa2 and Sa3) were isolated from bloodstream or pulmonary infections, and belong to a collection of bacterial strains established between 2010 and 2018 at the Department of Molecular Medicine and Medical Biotechnologies (University Federico II, Naples) for research use.
as §2, §3

KpCR2 = experiment: microbe, parasite or virus in culture; conditions: Klebsiella pneumoniae, read-out: Antimicrobial activity (MIC) KpCR2
Method: as §4, §2, §3

KpCR3 = experiment: microbe, parasite or virus in culture; conditions: Klebsiella pneumoniae, read-out: Antimicrobial activity (MIC) KpCR3
Method: as §4, §2, §3

Pa1 = experiment: microbe, parasite or virus in culture; conditions: Pseudomonas aeruginosa, PA1, read-out: Antimicrobial activity (MIC) Pa1
Method: as §4, §2, §3

Pa2 = experiment: microbe, parasite or virus in culture; conditions: Pseudomonas aeruginosa, read-out: Antimicrobial activity (MIC) Pa2
Method: as §4, §2, §3

Pa3 = experiment: microbe, parasite or virus in culture; conditions: Pseudomonas aeruginosa, read-out: Antimicrobial activity (MIC) Pa3
Method: as §4, §2, §3

Sa1 = experiment: microbe, parasite or virus in culture; conditions: Staphylococcus aureus, MRSA, read-out: Antimicrobial activity (MIC) Sa1
Method: as §4, §2, §3

Sa2 = experiment: microbe, parasite or virus in culture; conditions: Staphylococcus aureus, MRSA, read-out: Antimicrobial activity (MIC) Sa2
Method: as §4, §2, §3

Sa3 = experiment: microbe, parasite or virus in culture; conditions: Staphylococcus aureus, MRSA, read-out: Antimicrobial activity (MIC) Sa3
Method: as §4, §2, §3

[2] = Critical aggregation concentration, Nile red fluorescence; format: physicochemical; conditions: aqueous solution, pH 7, Nile red, 1–200 µM peptide
Method: The solvatochromic fluorescent probe Nile red is widely used to determine the CAC of self-assembling peptides. […] Since Nile red is poorly soluble in water, there is a large preference to partition aggregates, which offer hydrophobic binding sites. Initially, 1 mM methanolic Nile red was prepared. Then, the methanolic Nile red was diluted with water in order to have a final concentration of 500 nM (solution A). The peptides 1B, 2B, 3B, C, were prepared as follows[39]: peptide stock solutions (0.4 mM) were prepared by dissolving the single peptides in water (1B, C) or tetrahydrofuran (3B, 2B) and sonicating for 15 min. Different aliquots were taken to prepare solutions of each peptide at different concentrations (1, 5, 10, 15, 20, 30, 50, 100 and 200 µM). Then, all solutions were diluted with water, sonicated for 15 min and freeze-dried. Finally, the peptide powders were dissolved with the right volume of solution A and allowed to stand in the dark place for 1 h before measurement. Emission spectra for each solution were measured by a Cary Eclipse Varian spectrometer. Spectra were taken between 570 and 700 nm at a slit width of 5 nm, using an excitation wavelength of 550 nm and a 10 nm slit width. The measurements were performed in triplicate. The data were analysed by plotting the maximum emission fluorescence corresponding wavelength (y) as a function of peptide concentration (x) and fitting with the sigmoidal Boltzmann equation: y=A1+A2/1+e^(x−x0/Δx)+A2 where the variables A1 and A2 correspond to the upper and lower limits of the sigmoid, x0 is the inflection point of the sigmoid and Δx is the parameter, which characterises the steepness of the function. The sigmoidal plot allows calculating the CAC value at x0.

ANTS/DPX leakage assay = conditions: ANTS/DPX-loaded LUVs, Gram-positive and Gram-negative mimicking
Method: Large unilamellar vesicles (LUVs) and small unilamellar vesicles (SUVs) consisting of DOPG/CL (58/42 ratio in moles) and DOPG/DOPE/CL (63/23/12 ratio in moles), mimic the Gram-positive membrane and Gram-negative membrane, respectively. LUVs were prepared using the extrusion method as previously described. In particular, first lipid films were prepared by dissolving an appropriate amount of lipids in chloroform and fluorescent probes were added when necessary, then dried under a nitrogen gas stream and freeze-dried overnight. In all experiments, we used a final lipid concentration of 0.1 mM. For fluorescence experiments, buffer was added to dry lipid films and vortexed for 1 h; then the lipid suspension was freeze-thawed 6 times and extruded 10 times through polycarbonate membranes with 0.1 µm diameter pores to obtain LUVs. For circular dichroism measurements, peptide samples in SUVs were prepared as reported in the following protocol. Lipids were dissolved in chloroform and added to an equal volume of peptide solution dissolved in TFE containing appropriate peptide concentration. The samples were vortexed and lyophilised overnight. The dry samples were rehydrated with phosphate buffer 5 mM, pH 7.4 for 1 h and sonicated for 30 min.
The ANTS/DPX leakage assay was used to measure the ability of peptide to permeabilise and induce leakage of encapsulated dyes. After lipid films were prepared as previously described, ANTS (12.5 mM) and DPX (45 mM) were dissolved in 2 ml water, were added to lipid films and then lyophilised overnight. The lipid films with encapsulated ANTS and DPX were hydrated with PBS 1X buffer, vortexed for 1 h and then treated to obtain LUVs. The non-encapsulated ANTS and DPX were removed by gel filtration using a Sephadex G-50 column (1.5 cm × 10 cm) at room temperature. To start up the leakage experiment, a 2 mM peptide stock solution was prepared and LUVs were titrated with the peptide. Samples were excited at 385 nm (slit width, 5 nm) and fluorescence emission was recorded at 512 nm (slit width, 5 nm). After the addition of peptide, we evaluated leakage of encapsulated ANTS through a change in fluorescence spectra of ANTS and DPX. In particular, leakage is associated to an increase in ANTS fluorescence at 512 nm. Complete release of ANTS was obtained by using 0.1% Triton X, which caused the total destruction of liposomes. The percentage of leakage was calculated as % leakage =(Fi−F0)/(Ft−F0), where F0 represents the fluorescence of intact LUVs before the addition of peptide, and Fi and Ft denote the intensities of the fluorescence achieved after peptide and Triton-X treatment, respectively.

sheep red blood cells = format: cell-based; conditions: red cells of sheep, 24 h
Method: Sheep red blood cells were purchased from OXOID, SR0051D.
The haemolytic assay was conducted following the procedure described. […] Controls were erythrocytes treated with vehicle (water).

HaCaT cells = conditions: 24 h, at 6.25 µM
Method: The human immortalised keratinocytes HaCaT cells (AddexBio, San Diego, CA, USA) were cultured in Dulbecco’s modified Eagle’s medium containing 4 mM glutamine (DMEMg), supplemented with 10% heat-inactivated foetal bovine serum (FBS) and 0.1 mg/ml of penicillin and streptomycin, at 37 °C and 5% CO2, in 25 cm^2 or 75 cm^2 flasks[33].
The colorimetric MTT assay was carried out to measure cellular metabolic activity in terms of cell viability[33]^,[36]. Viable cells are able to reduce, by active mitochondrial dehydrogenases, the yellow salt MTT to purple formazan crystals. Briefly, 4 × 10^4 HaCaT cells, suspended in DMEMg supplemented with 2% FBS, were plated in each well of a 96-well microtiter plate. After overnight incubation, at 37 °C in a 5% CO2 atmosphere, keratinocytes were treated for 24 h with fresh serum-free medium containing the peptides 3B and C at concentrations ranging from 3.12 µM to 25 µM. Afterward, the culture medium was replaced with Hank’s buffer supplemented with 0.5 mg/ml MTT and the plate was incubated at 37 °C and 5% CO2 for 4 h. At the end, acidified isopropanol was employed to dissolve the formazan crystals. Cell viability was calculated, with respect to cells not treated with peptide, by absorbance measurements at 570 nm using a microplate reader (Infinite M200; Tecan, Salzburg, Austria)[33]. […]

| SMILES | MIC (P. aeruginosa ATCC 27853) [µg/mL] | MIC [1] [µg/mL] | MIC (S. aureus ATCC 25923) [µg/mL] | MIC (KpCR1) [µg/mL] | MIC (KpCR2) [µg/mL] | MIC (KpCR3) [µg/mL] | MIC (Pa1) [µg/mL] | MIC (Pa2) [µg/mL] | MIC (Pa3) [µg/mL] | MIC (Sa1) [µg/mL] | MIC (Sa2) [µg/mL] | MIC (Sa3) [µg/mL] | Antimicrobial activity (MIC) P. aeruginosa ATCC 27853 (P. aeruginosa ATCC 27853) [µM] | Antimicrobial activity (MIC) K. pneumoniae ATCC BAA-1705 [1] [µM] | Antimicrobial activity (MIC) S. aureus ATCC 25923 (S. aureus ATCC 25923) [µM] | CAC (critical aggregation concentration) [2] [µM] | membrane leakage ability (in words) (ANTS/DPX leakage assay) | haemolytic potency (sheep red blood cells) | reduction in cell viability (HaCaT cells) |
| --- | --- | --- | --- | --- | --- | --- | --- | --- | --- | --- | --- | --- | --- | --- | --- | --- | --- | --- | --- |
| NC[C@H]1O[C@H](O[C@H]2[C@H](O)[C@@H](O[C@H]3O[C@H](CO)[C@@H](O)[C@H](N)[C@H]3O)[C@H](N)C[C@@H]2N)[C@H](N)C[C@@H]1O [Tobramycin] | 4 (≈ 8.56 µM) | > 4 | 1 (≈ 2.14 µM) | 2 (≈ 4.28 µM) | 2 (≈ 4.28 µM) | > 4 | 4 (≈ 8.56 µM) | 4 (≈ 8.56 µM) | 4 (≈ 8.56 µM) | 1 (≈ 2.14 µM) | < 1 | 1 (≈ 2.14 µM) |  |  |  |  |  |  |  |
| CCCCC(=O)N[C@@H](Cc1ccccc1)C(=O)N[C@H](C(=O)N1CCC[C@H]1C(=O)N[C@@H](Cc1c[nH]c2ccccc12)C(=O)N[C@@H](Cc1ccccc1)C(=O)N[C@@H](CO)C(=O)N[C@@H](CCCCN)C(=O)N[C@@H](Cc1ccccc1)C(=O)N[C@H](CC(C)C)C(=O)N[C@H](CCCCN)C(=O)N[C@@H](CCCNC(=N)N)C(=O)N[C@H](C(=O)N[C@@H](CC(C)C)C(N)=O)[C@@H](C)CC)C(C)C [Compound 2B, CH3(CH2)3CO-Phe-Val-Pro-Trp-Phe-Ser-Lys-Phe-DLeu-DLys-Arg-Ile-Leu-NH2] (Pentanoyl-FVPWFSKF[dL][dK]RIL-NH2) |  |  |  |  |  |  |  |  |  |  |  |  | 50 | 50 | 12.5 | 20.9 | highest leakage ability |  |  |
| CNC(C)C1CCC(N)C(OC2C(N)CC(N)C(OC3OCC(C)(O)C(NC)C3O)C2O)O1 (stereo not drawn) [Gentamicin] | 4 (≈ 8.38 µM) | 4 (≈ 8.38 µM) | 1 (≈ 2.09 µM) | 1 (≈ 2.09 µM) | > 8 | 1 (≈ 2.09 µM) | > 4 | > 4 | > 4 | < 1 | < 1 | < 1 |  |  |  |  |  |  |  |
| C[C@@H](O)[C@H]1C(=O)N2C(C(=O)O)=C(SCCN=CN)C[C@H]12 [Imipenem] | 4 (≈ 13.4 µM) | > 8 | 0.5 (≈ 1.67 µM) | > 8 | > 8 | > 8 | > 4 | > 4 | > 4 | 8 (≈ 26.7 µM) | > 8 | > 8 |  |  |  |  |  |  |  |
| CCCCCCC(=O)N[C@@H](Cc1ccccc1)C(=O)N[C@H](C(=O)N1CCC[C@H]1C(=O)N[C@@H](Cc1c[nH]c2ccccc12)C(=O)N[C@@H](Cc1ccccc1)C(=O)N[C@@H](CO)C(=O)N[C@@H](CCCCN)C(=O)N[C@@H](Cc1ccccc1)C(=O)N[C@H](CC(C)C)C(=O)N[C@H](CCCCN)C(=O)N[C@@H](CCCNC(=N)N)C(=O)N[C@H](C(=O)N[C@@H](CC(C)C)C(N)=O)[C@@H](C)CC)C(C)C [Compound 3B, CH3(CH2)5CO-Phe-Val-Pro-Trp-Phe-Ser-Lys-Phe-DLeu-DLys-Arg-Ile-Leu-NH2] (Heptanoyl-FVPWFSKF[dL][dK]RIL-NH2) |  |  |  |  |  |  |  |  |  |  |  |  | 25 | 50 | 3.12 | 9.33 | highest leakage ability | over 50% | about 50% |
